Measurements from paper PMC8954831, “Design, Synthesis, Molecular Docking, and Biological Evaluation of Pyrazole Hybrid Chalcone Conjugates as Potential Anticancer Agents and Tubulin Polymerization Inhibitors” (Pharmaceuticals, 2022).
Where two headings read alike, the source gives them in different places.

Columns and labels:
[1] = tested on: PC-3 (prostate cancer cell line); assay: In vitro cytotoxicity, MTT assay, PC-3; format: cell-based; settings: Homo sapiens, 48 h, read-out: IC50 PC3
Protocol: (§1) The resultant compounds were tested for their in vitro cytotoxic activity by MTT assay against breast (MCF-7), cervical (SiHa), and prostate (PC-3) cancer cell lines, and the human embryonic kidney cell line (HEK). […] Subsequently, SAR studies were done by investigating the effect of substituents on cytotoxic activity.
(§2) Human cervical cancer cell line SiHa, human breast cancer cell line MCF-7, human prostate cancer cell line PC-3, and human embryonic kidney HEK-293 cells were procured from the National Centre for Cell Sciences (NCCS) Pune, India. In this experiment, antibiotics (100 units/mL penicillin and 100 mg L^−1 streptomycin were grown as a monolayer culture in Dulbecco’s modified Eagle’s medium containing 10% fetal bovine serum) were cultured in a humidified atmosphere of 5% CO2 at 37 °C in T-75 flasks and subcultured twice a week.
(§3) The cytotoxic effects of the selected compounds were evaluated by MTT assay on the above-mentioned cell lines. Initially, 2 × 10^4 cells/well were seeded into 96-well plates (150 µL/well) in triplicates and allowed to grow. The cells were incubated for 24 h and subsequently treated with varying concentrations of the compounds. After 48 h, the cells were incubated with 20 μL of MTT (5 mg/mL in PBS) in a fresh medium for 4 h at 37 °C. MTT is a metabolic substrate that is reduced to give formazan crystals, which were solubilized in DMSO (150 µL/well) and analyzed by reading the absorbance at 540 nm after 15 min of the incubation period on the iMark Microplate Reader (Bio-Rad). Percentage viability and IC50 values were used to determine the relative absorbance of treated versus control (untreated) cells.

[2] = tested on: SiHa (cervical cancer cell line); assay: In vitro cytotoxicity, MTT assay, SiHa; format: cell-based; settings: Homo sapiens, 48 h, read-out: IC50 SiHa
Protocol: as §1, §2, §3

[3] = tested on: MCF-7 (breast cancer cell line); assay: In vitro cytotoxicity, MTT assay, MCF-7; format: cell-based, human
Protocol: as §1, §2, §3

[4] = tested on: HEK-293 (human embryonic kidney cells); assay: In vitro cytotoxicity, MTT assay, HEK-293 normal cells; format: cell-based; settings: for IC50: read-out: IC50 HEK-293
Protocol: as §1, §2, §3

[5] = target: tubulin (purified brain tubulin) (Sus scrofa, UniProt P02550+P02554); assay: In vitro tubulin polymerization assay (fluorescence); format: biochemical; settings: for inhibition at 10 µM: read-out: % Inhibition of Tubulin Polymerization at 10 µM; for inhibition at 3 µM: read-out: % Inhibition of Tubulin Polymerization
Protocol: The α and β tubulin subunits are recognized by heterodimers and self-assemble into a stable microtubule in a time-dependent manner. Assessment of the inhibitory effect of new pyrazolic chalcone conjugates on tubulin polymerization was also carried out. The progression of tubulin polymerization was thus examined by monitoring the increase in the fluorescence intensity at 450 nm (excitation wavelength of 360 nm) in a 384-plate for 1 h at 37 °C with and without the conjugate at 10 µM concentration. CA-4 (6 µM) and Vincristine (3 µM) were used as the positive control, whereas paclitaxel (3 µM) was used as the negative control.
Tubulin polymerization is a dynamic process by enhancement of fluorescence intensity due to the combination of a fluorescent reporter into the microtubules as polymerization occurs. Tubulin polymerization was performed by using a purified brain tubulin polymerization kit purchased from Cytoskeleton (BK110P, Denver, CO, USA). The tubulin polymerization assay was monitored by the increase in fluorescence over a 60 min period at 37 °C, with excitation at 360 nm and emission at 450 nm. The final buffer concentration for tubulin polymerization contained 80 mM PIPES, pH 6.9; 2 mM MgCl2; 0.5 mM EGTA; […]; and 15% glycerol. Firstly, 5 µL of the test compounds (final concentration of 10 µM) was added and then warmed to 37 °C for 1 min. The reaction was initiated by adding 50 µL of the tubulin reaction mix as specified for 6 min.

[6] = Homo sapiens, MCF7, MTT, 48 h, breast cancer, read-out: IC50 MCF-7
[7] = HEK293, MTT, 48 h, human normal cell line

tubulin (purified brain tubulin), sequence (P02550 whole entry): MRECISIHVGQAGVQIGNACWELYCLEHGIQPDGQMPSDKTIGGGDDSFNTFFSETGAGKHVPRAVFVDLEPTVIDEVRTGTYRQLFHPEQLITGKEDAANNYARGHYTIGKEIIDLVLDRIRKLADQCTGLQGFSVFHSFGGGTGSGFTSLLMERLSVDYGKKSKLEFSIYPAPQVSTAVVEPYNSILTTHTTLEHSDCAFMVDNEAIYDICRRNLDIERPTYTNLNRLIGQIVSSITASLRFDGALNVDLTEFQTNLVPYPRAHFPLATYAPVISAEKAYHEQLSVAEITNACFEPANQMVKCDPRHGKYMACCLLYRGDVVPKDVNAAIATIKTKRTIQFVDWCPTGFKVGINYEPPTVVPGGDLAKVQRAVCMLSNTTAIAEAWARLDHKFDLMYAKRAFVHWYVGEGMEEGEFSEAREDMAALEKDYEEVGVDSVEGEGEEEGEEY
tubulin (purified brain tubulin), sequence (P02554 whole entry): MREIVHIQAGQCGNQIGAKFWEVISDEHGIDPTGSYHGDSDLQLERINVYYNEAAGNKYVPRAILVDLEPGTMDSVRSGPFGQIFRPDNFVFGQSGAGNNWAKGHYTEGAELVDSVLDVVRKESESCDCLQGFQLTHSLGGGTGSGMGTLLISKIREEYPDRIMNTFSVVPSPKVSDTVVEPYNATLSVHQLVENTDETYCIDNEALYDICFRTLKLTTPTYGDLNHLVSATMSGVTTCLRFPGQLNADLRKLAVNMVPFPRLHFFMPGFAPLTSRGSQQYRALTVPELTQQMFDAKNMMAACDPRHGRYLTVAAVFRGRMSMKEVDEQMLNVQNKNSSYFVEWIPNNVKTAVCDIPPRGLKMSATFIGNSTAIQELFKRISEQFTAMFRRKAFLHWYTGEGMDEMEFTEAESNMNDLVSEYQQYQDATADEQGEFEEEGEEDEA

| SMILES | melting point [°C] | IC50 ([1]; MTT, prostate cancer) [µM] | IC50 ([2]; MTT, cervical cancer) [µM] | inhibition at 10 µM [5] [%] | IC50 [3, 6] [µM] | IC50 [4, 7] [µM] | other results |
| --- | --- | --- | --- | --- | --- | --- | --- |
| O=C(/C=C/c1cn(-c2ccccc2)nc1-c1ccc(OCc2ccccc2)cc1)c1ccc(Br)cc1 [Compound 5g, (E)-3-(3-(4-(benzyloxy)phenyl)-1-phenyl-1H-pyrazol-4-yl)-1-(4-bromophenyl)prop-2-en-1-one] | 178 to 180 | – | – | – | – | – | – |
| COc1ccc(/C=C\c2cc(OC)c(OC)c(OC)c2)cc1O [Combretastatin A-4, reference compound] | – | – | – | – | – | – | IC50 [1]: 3.86 ± 0.39 µM; IC50 [2]: 5.23 ± 0.85 µM; IC50 ([3]; Homo sapiens, MCF7, 48 h, read-out: IC50 MCF-7, MTT, 48 h, breast cancer): 4.12 to 5.23 µM; IC50 ([3]; read-out: IC50 MCF-7, MTT, 48 h, breast cancer, listed as CA-4): 4.12 ± 0.38 µM; IC50 ([4]; Homo sapiens, HEK293, 48 h): 19.2 ± 1.65 µM |
| O=C(/C=C/c1cn(-c2ccccc2)nc1-c1ccc(OCc2ccccc2)cc1)c1ccc(O)cc1 [Compound 5h, (E)-3-(3-(4-(benzyloxy)phenyl)-1-phenyl-1H-pyrazol-4-yl)-1-(4-hydroxyphenyl)prop-2-en-1-one] | 167 to 169 | – | – | – | – | – | – |
| O=C(/C=C/c1cn(-c2ccccc2)nc1-c1ccc(OCc2ccccc2)cc1)c1ccc([N+](=O)[O-])cc1 [Compound 5i, (E)-3-(3-(4-(benzyloxy)phenyl)-1-phenyl-1H-pyrazol-4-yl)-1-(4-nitrophenyl)prop-2-en-1-one] | 223 to 225 | 13.1 ± 1.6 | 34.5 ± 0.9 | 28.4 | 42.7 ± 0.34 | 45.2 ± 2.6 | – |
| O=C(/C=C/c1cn(-c2ccccc2)nc1-c1ccc(OCc2ccccc2)cc1)c1cccc(O)c1 [Compound 5d, (E)-3-(3-(4-(benzyloxy)phenyl)-1-phenyl-1H-pyrazol-4-yl)-1-(3-hydroxyphenyl)prop-2-en-1-one] | 184 to 186 | 2.97 ± 0.88 | 4.85 ± 0.89 | 49.8 | 4.1 ± 1.12 | > 50 | – |
| CC(=O)O[C@H]1C(=O)[C@@]2(C)[C@H]([C@H](OC(=O)c3ccccc3)[C@]3(O)C[C@H](OC(=O)[C@H](O)[C@@H](NC(=O)c4ccccc4)c4ccccc4)C(C)=C1C3(C)C)[C@]1(OC(C)=O)CO[C@@H]1C[C@@H]2O [Paclitaxel, paclitaxel, reference compound] | – | – | – | – | – | – | inhibition at 3 µM [5]: -25.7% |
| O=C(/C=C/c1cn(-c2ccccc2)nc1-c1ccc(OCc2ccccc2)cc1)c1ccc(Cl)cc1 [Compound 5e, (E)-3-(3-(4-(benzyloxy)phenyl)-1-phenyl-1H-pyrazol-4-yl)-1-(4-chlorophenyl)prop-2-en-1-one] | – | 9.68 ± 1.42 | 12.3 ± 1.32 | 48.4 | 11.5 ± 1.62 | > 50 | – |
| O=C(/C=C/c1cn(-c2ccccc2)nc1-c1ccc(OCc2ccccc2)cc1)c1ccccc1Cl [Compound 5b, (E)-3-(3-(4-(benzyloxy)phenyl)-1-phenyl-1H-pyrazol-4-yl)-1-(2-chlorophenyl)prop-2-en-1-one] | 182 to 184 | – | – | – | – | – | – |
| COc1ccc(C(=O)/C=C/c2cn(-c3ccccc3)nc2-c2ccc(OCc3ccccc3)cc2)c(Br)c1 [Compound 5q, (E)-3-(3-(4-(benzyloxy)phenyl)-1-phenyl-1H-pyrazol-4-yl)-1-(2-bromo-4-methoxyphenyl)prop-2-en-1-one] | 174 to 176 | – | – | – | – | – | – |
| COc1ccc(C(=O)/C=C/c2cn(-c3ccccc3)nc2-c2ccc(OCc3ccccc3)cc2)cc1 [Compound 5k, (E)-3-(3-(4-(benzyloxy)phenyl)-1-phenyl-1H-pyrazol-4-yl)-1-(4-methoxyphenyl)prop-2-en-1-one] | 187 to 189 | 5.45 ± 0.94 | 5.65 ± 0.71 | 32.8 | 7.23 ± 0.74 | > 50 | – |
| O=C(/C=C/c1cn(-c2ccccc2)nc1-c1ccc(OCc2ccccc2)cc1)c1ccc(C(F)(F)F)cc1 [Compound 5r, (E)-3-(3-(4-(benzyloxy)phenyl)-1-phenyl-1H-pyrazol-4-yl)-1-(4-(trifluoromethyl)Phenyl)prop-2-en-1-one] | 186 to 188 | > 50 | > 50 | 31.5 | 14.8 ± 2.76 | 38.3 ± 1.72 | – |
| COc1ccc(C(=O)/C=C/c2cn(-c3ccccc3)nc2-c2ccc(OCc3ccccc3)cc2)c(OC)c1 [Compound 5p, (E)-3-(3-(4-(benzyloxy)phenyl)-1-phenyl-1H-pyrazol-4-yl)-1-(2,4-dimethoxyphenyl)prop-2-en-1-one] | 226 to 228 | 6.52 ± 1.23 | 4.98 ± 0.54 | 51.1 | 3.45 ± 1.28 | > 50 | – |
| O=C(/C=C/c1cn(-c2ccccc2)nc1-c1ccc(OCc2ccccc2)cc1)c1ccc(Cl)c(Cl)c1 [Compound 5l, (E)-3-(3-(4-(benzyloxy)phenyl)-1-phenyl-1H-pyrazol-4-yl)-1-(3,4-dichlorophenyl)prop-2-en-1-one] | 243 to 245 | 5.84 ± 1.65 | 11.7 ± 2.83 | 55.2 | 8.23 ± 1.45 | > 50 | – |
| O=C(/C=C/c1cn(-c2ccccc2)nc1-c1ccc(OCc2ccccc2)cc1)c1ccc(Cl)cc1Cl [Compound 5m, (E)-3-(3-(4-(benzyloxy)phenyl)-1-phenyl-1H-pyrazol-4-yl)-1-(2,4dichlorophenyl)prop-2-en-1-one] | 192 to 194 | 11.2 ± 1.44 | 6.46 ± 1.52 | 33.8 | 17.1 ± 2.25 | > 50 | – |
| Cc1ccc(C(=O)/C=C/c2cn(-c3ccccc3)nc2-c2ccc(OCc3ccccc3)cc2)cc1 [Compound 5j, (E)-3-(3-(4-(benzyloxy)phenyl)-1-phenyl-1H-pyrazol-4-yl)-1-(p-tolyl)prop-2-en-1-one] | 205 to 207 | – | – | – | – | – | – |
| O=C(/C=C/c1cn(-c2ccccc2)nc1-c1ccc(OCc2ccccc2)cc1)c1ccc(F)cc1 [Compound 5f, (E)-3-(3-(4-(benzyloxy)phenyl)-1-phenyl-1H-pyrazol-4-yl)-1-(4-fluorophenyl)prop-2-en-1-one] | 168 to 170 | – | – | – | – | – | – |
| COc1ccc(C(=O)/C=C/c2cn(-c3ccccc3)nc2-c2ccc(OCc3ccccc3)cc2)cc1OC [Compound 5o, (E)-3-(3-(4-(benzyloxy)phenyl)-1-phenyl-1H-pyrazol-4-yl)-1-(3,4-dimethoxyphenyl)prop-2-en-1-one] | 206 to 208 | 4.46 ± 0.53 | 4.34 ± 0.98 | 66.4 | 2.13 ± 0.8 | > 50 | toxicity to the HEK cells ([4]; in words): did not exhibit significant toxicity |
| CC[C@]1(O)C[C@H]2CN(CCc3c([nH]c4ccccc34)[C@@](C(=O)OC)(c3cc4c(cc3OC)N(C=O)[C@H]3[C@@](O)(C(=O)OC)[C@H](OC(C)=O)[C@]5(CC)C=CCN6CC[C@]43[C@@H]65)C2)C1 [Vincristine, reference compound] | – | – | – | – | – | – | inhibition at 3 µM [5]: 75.5% |
| O=C(/C=C/c1cn(-c2ccccc2)nc1-c1ccc(OCc2ccccc2)cc1)c1ccc(O)cc1O [Compound 5n, (E)-3-(3-(4-(benzyloxy)phenyl)-1-phenyl-1H-pyrazol-4-yl)-1-(2,4-dihydroxyphenyl)prop-2-en-1-one] | 176 to 178 | 3.56 ± 0.63 | 3.6 ± 0.45 | 47.6 | 6.98 ± 1.12 | > 50 | – |
| O=C(/C=C/c1cn(-c2ccccc2)nc1-c1ccc(OCc2ccccc2)cc1)c1cccc([N+](=O)[O-])c1 [Compound 5c, (E)-3-(3-(4-(benzyloxy)phenyl)-1-phenyl-1H-pyrazol-4-yl)-1-(3-nitrophenyl)prop-2-en-1-one] | 203 to 205 | – | – | – | – | – | – |
